The source of these data is patent US7262212B2, “2,3-dihydro-6-nitroimidazo[2,1-b]oxazoles” (Otsuka Pharmaceutical Co., Ltd., priority 2002, dated 2007).

Broadly, the melting point is the temperature of the solid-liquid transition.

With `C[C@]1(CN2CCN(S(=O)(=O)CCc3ccc(Cl)cc3)CC2)Cn2cc([N+](=O)[O-])nc2O1`, the melting point was in the range of 192 to 193 °C. For `C[C@]1(CN2CCN(C(=O)OCC=Cc3ccc(C(F)(F)F)cc3)CC2)Cn2cc([N+](=O)[O-])nc2O1` the value was 132 to 133 °C; for `CN(C)c1ccc(NC(=O)N2CCC3(CC2)Cn2cc([N+](=O)[O-])nc2O3)cc1`, 244 to 247 °C (dec.).

`CC1(CCCN2CCN(Cc3ccc(C(F)(F)F)cc3)CC2)Cn2cc([N+](=O)[O-])nc2O1` (centres unmarked) came in with a melting point of 154 to 156 °C.

Take `C[C@]1(CN2CCC(N3CCN(C(=O)c4ccc(Cl)cc4)CC3)CC2)Cn2cc([N+](=O)[O-])nc2O1`: the melting point was in the range of 174 to 175 °C.

`C[C@]1(CN2CCN(N=Cc3cc4cc(C(F)(F)F)ccc4o3)CC2)Cn2cc([N+](=O)[O-])nc2O1` showed a melting point of 190.2 to 191.8 °C.

The compound `C[C@]1(COc2ccc(C3CCN(Cc4ccc(OC(F)(F)F)cc4)CC3)cc2)Cn2cc([N+](=O)[O-])nc2O1` had a melting point of 186 to 188 °C.

Take `CC1(COC(=O)N2CCCCC2)Cn2cc([N+](=O)[O-])nc2O1` (centres unmarked): the melting point was 152 to 154 °C. For the compound `CC(C)(C)OC(=O)N1CCN(C(=O)c2ccc(OC[C@@]3(C)Cn4cc([N+](=O)[O-])nc4O3)cc2)CC1`, the melting point fell in the range of 222.5 to 224 °C. To `CC1(CSc2nnnn2-c2ccccc2)Cn2cc([N+](=O)[O-])nc2O1` (centres unmarked) belongs 140 to 147 °C; to `C[C@]1(CN2CCC(NC(=O)Nc3ccc(C(F)(F)F)cc3)CC2)Cn2cc([N+](=O)[O-])nc2O1`, 136.8 to 139.9 °C. As for `COc1ccc(CN2CCN(CC3(C)Cn4cc([N+](=O)[O-])nc4O3)C2=O)cc1` (centres unmarked), the melting point lay in the range of 158.6 to 160.5 °C. To `CC1(CN2CCC(C(=O)c3ccc(Cl)cc3)CC2)Cn2cc([N+](=O)[O-])nc2O1` (centres unmarked) belongs 165 to 167 °C; to `CNCC1(C)Cn2cc([N+](=O)[O-])nc2O1.O=C(O)C(F)(F)F` (centres unmarked), 176.2 to 178.8 °C. Regarding `C[C@]1(COc2ccc(N3CCN(c4ccc(OC(F)(F)F)cc4)CC3)cc2)Cn2cc([N+](=O)[O-])nc2O1`, the melting point fell in the range of 262.5 to 265 °C. Take `CC1(CN2C(=O)c3ccccc3C2=O)Cn2cc([N+](=O)[O-])nc2O1` (centres unmarked): the melting point was in the range of 264.6 to 268.3 °C. For `CC1(CN2CCC(Oc3ccc(C(F)(F)F)cc3)CC2)Cn2cc([N+](=O)[O-])nc2O1` (centres unmarked) the value was 113 to 114 °C. For `C[C@]1(CN2CCC(c3ccc(C(F)(F)F)cc3)CC2)Cn2cc([N+](=O)[O-])nc2O1` the value was 138.7 to 139.9 °C; for `CC1(c2cccnc2)Cn2cc([N+](=O)[O-])nc2O1` (centres unmarked), 212 to 214 °C; for `CC1(Cn2nc(-c3ccc(F)cc3)oc2=O)Cn2cc([N+](=O)[O-])nc2O1` (centres unmarked), 188 to 191 °C. For `CC(C)(C)OC(=O)N1CCN(CCC2(C)Cn3cc([N+](=O)[O-])nc3O2)CC1` (centres unmarked) the value was 190 to 191 °C (dec.). In turn, `CC1(CN2CCN(S(=O)(=O)CCc3ccc(Cl)cc3)CC2)Cn2cc([N+](=O)[O-])nc2O1` (centres unmarked) yielded a melting point of 182 to 184 °C. For `C[C@]1(CN2CCN(C3CCN(C(=O)c4ccc(Cl)cc4)CC3)CC2)Cn2cc([N+](=O)[O-])nc2O1`, the melting point fell in the range of 218 to 220 °C. `CC(C)(C)OC(=O)N1CCC(n2c(=O)n(CC3(C)Cn4cc([N+](=O)[O-])nc4O3)c3ccccc32)CC1` (centres unmarked) came in with a melting point of 218 to 219.1 °C. To `CN(Cc1ccc(OC(F)(F)F)cc1)C(=O)OC[C@@]1(C)Cn2cc([N+](=O)[O-])nc2O1` belongs 123 to 124 °C; to `C[C@]1(CN2CCN(C(=O)c3ccc(C(F)(F)F)cc3)CC2)Cn2cc([N+](=O)[O-])nc2O1`, 183 to 184 °C.

With `O=[N+]([O-])c1cn2c(n1)OC1(CCN(c3ccc(OC(F)(F)F)cc3)CC1)C2`, the melting point is 235.9 to 236.8 °C (dec.).

`C[C@]1(CN2CCC(N3CCC(Oc4ccc(OC(F)(F)F)cc4)CC3)CC2)Cn2cc([N+](=O)[O-])nc2O1` returned a melting point of 131 to 132 °C. For `C[C@]1(CN2CCN(Cc3ccc(-c4ccccc4)cc3)CC2)Cn2cc([N+](=O)[O-])nc2O1` the value was 182 to 184 °C; for `CC1(CCN2CCN(c3ccccc3)C(=O)C2)Cn2cc([N+](=O)[O-])nc2O1` (centres unmarked), 199 to 202 °C (dec.); for `CC(C)(C)OC(=O)N1CCN(c2ccc(OC[C@@]3(C)Cn4cc([N+](=O)[O-])nc4O3)cc2Cl)CC1`, 207 to 209.5 °C.

On to `O=C(NCc1ccccc1)N1CCC2(CC1)Cn1cc([N+](=O)[O-])nc1O2`, for which the melting point is 244 to 247 °C (dec.).

As to `CC1(CN2CCN(C(=O)Nc3ccc(Cl)cc3)CC2)Cn2cc([N+](=O)[O-])nc2O1` (centres unmarked), the melting point is 185 to 188 °C (dec.). `C[C@]1(CN2CCN(Nc3ccc(C(F)(F)F)cc3)CC2)Cn2cc([N+](=O)[O-])nc2O1` had a melting point of 192.1 to 195.3 °C.

On to `CC1(CN2CCN(C(=O)OCC#Cc3ccc(C(F)(F)F)cc3)CC2)Cn2cc([N+](=O)[O-])nc2O1.O=C(O)/C=C\C(=O)O` (centres unmarked), for which the melting point was 166 °C (dec.).

`C[C@]1(CN2CCC(OCC=Cc3ccccc3)CC2)Cn2cc([N+](=O)[O-])nc2O1`: the melting point was 91.3 to 92.7 °C. `CC1(Cn2nc(CCc3ccc(Cl)cc3)oc2=O)Cn2cc([N+](=O)[O-])nc2O1` (centres unmarked) returned a melting point of 139 to 140 °C.

`CCOC(=O)C1CCN(c2ccc(OC[C@@]3(C)Cn4cc([N+](=O)[O-])nc4O3)cc2)CC1` gave a melting point of 208.2 to 211.5 °C. The compound `CC1(CN2CCN(C(=O)NC3CCCCC3)CC2)Cn2cc([N+](=O)[O-])nc2O1` (centres unmarked) had a melting point of 216.5 to 218.5 °C. To `C[C@]1(CN2CCN(C3CCN(c4ccc(OC(F)(F)F)cc4)CC3)CC2)Cn2cc([N+](=O)[O-])nc2O1` belongs 180 to 181.5 °C; to `CC1(CCCN2CCN(C(=O)OCc3ccc(C(F)(F)F)cc3)CC2)Cn2cc([N+](=O)[O-])nc2O1` (centres unmarked), 130 to 133 °C. Turning to `C[C@]1(CN2CCC(N3CCN(C(=O)OCc4ccc(OC(F)(F)F)cc4)CC3)CC2)Cn2cc([N+](=O)[O-])nc2O1`, the melting point lay within 110 to 111 °C. `CN(C[C@@]1(C)Cn2cc([N+](=O)[O-])nc2O1)c1ccc(Cl)cc1`: the melting point was 174 to 175 °C. To `CNC(C1CCN(C(=O)OC(C)(C)C)CC1)[C@]1(C)Cn2cc([N+](=O)[O-])nc2O1` (some centres unmarked) belongs 138.5 to 140.3 °C; to `CC1(CN2CCN(c3ccc(Cl)cc3)CC2)Cn2cc([N+](=O)[O-])nc2O1` (centres unmarked), 196.6 to 197.3 °C.

For `CC1(COc2ccc(OC(F)(F)F)cc2)Cn2cc([N+](=O)[O-])nc2O1` (centres unmarked), the melting point was 126.8 to 127.9 °C. On to `CC1(CN2CCN(C(=O)Nc3ccc(C(F)(F)F)cc3)CC2)Cn2cc([N+](=O)[O-])nc2O1` (centres unmarked), for which the melting point lay in the range of 216 to 217 °C. Compound `O=C(Nc1ccc(C(F)(F)F)cc1)N1CCC2(CC1)Cn1cc([N+](=O)[O-])nc1O2` had a melting point of 215 to 217 °C.

Compound `C[C@]1(CN2CCC(NC(=O)OCc3ccc(C(F)(F)F)cc3)CC2)Cn2cc([N+](=O)[O-])nc2O1` came in with a melting point of 141.2 to 144 °C. To `COc1ccc(CN2CCN(CC3(C)Cn4cc([N+](=O)[O-])nc4O3)C2=O)c(OC)c1` (centres unmarked) belongs 175 to 175.4 °C.
